# Biological target: T1, Purified recombinant HIV-1 integrase (Human immunodeficiency virus type 1 group M subtype B, UniProt P04585)
# T1 construct: Purified recombinant HIV-1 integrase
# Test: in vitro HIV-1 integrase integration (strand transfer) assay
# Type: biochemical
# Details: compound at 70 μM; immobilized precleaved substrate DNA, biotinylated target DNA, 1 hour at 37° C.
# Method: The in vitro activities, against integrase, of compounds of the present invention, were measured in a manner which was similar to previously disclosed methods (cf. Hazuda, D. J.; Felock, P.; Witmer, M.; Wolfe, A.; Stillmock, K.; Grobler, J. A.; Espeseth, A.; Gabryelski, L.; Schleif, W.; Blau, C.; Miller, M. D. Science, 2000, 287, 646) Purified recombinant HIV-1 integrase was incubated with immobilized precleaved substrate DNA in a 96 well plate for 20 min at 37° C. After the integration complex was formed, compounds at desired concentrations were added to the wells followed by a 10 min incubation at 37° C. Biotinyted Target DNA was then added and the reaction was carried out for an additional 1 hour at 37° C. Wells were then washed thoroughly to remove any free DNA and integration activity was measured by using a commercial kit to quantitate the amount of biotinyted target DNA integrated into the substrate.
row,SMILES,inhibition at 70 µM
1,"O=C(/C=C(\O)C(=O)O)CC(=O)c1cccc(Cl)c1 [Compound 10, 6-(3-Chloro-phenyl)-2-hydroxy-4,6-dioxo-hex-2-enoic Acid]",88%
2,"O=C(/C=C(\O)C(=O)O)CC(=O)c1ccc(-c2ccccc2)cc1 [Compound 9, 6-Biphenyl-4-yl-2-hydroxy-4,6-dioxo-hex-2-enoic Acid]",99%
3,"O=C(/C=C(\O)C(=O)O)CCc1ccccc1Br [Compound 2, 6-(2-Bromo-phenyl)-2-hydroxy-4-oxo-hex-2-enoic Acid]",90%
4,"O=C(/C=C(\O)C(=O)O)CC(=O)c1ccccc1OCc1ccccc1 [Compound 4, 6-(2-Benzyloxy-phenyl)-2-hydroxy-4,6,-dioxo-hex-2-enoic Acid]",97%
5,"O=C(/C=C(\O)C(=O)O)CC(=O)c1ccccc1F [Compound 11, 6-(2-Fluoro-phenyl)-2-hydroxy-4,6,-dioxo-hex-2-enoic Acid]",86%
6,"O=C(/C=C(\O)C(=O)O)CC(=O)c1ccc(Cl)cc1Cl [Compound 8, 6-(2,4,-Dichloro-phenyl)-2-hydroxy-4,6-dioxo-hex-2-enoic Acid]",95%
7,"O=C(/C=C(\O)C(=O)O)CC(=O)c1ccccc1 [Compound 13, 2-Hydroxy-4,6-dioxo-6-phenyl-hex-2-enoic Acid]",50%
8,"O=C(/C=C(\O)C(=O)O)CCc1ccccc1Cl [Compound 1, 6-(2-chloro-phenyl)-2-hydroxy-4-oxo-hex-2-enoic Acid]",70%
9,"O=C(/C=C(\O)C(=O)O)CCc1ccccc1 [Compound 3, 2-Hydroxy-4-oxo-phenyl-hex-2-enoic Acid]",60%
10,"COc1ccccc1C(=O)CC(=O)/C=C(\O)C(=O)O [Compound 6, 2-Hydroxy-6-(2-methoxy-phenyl)-4,6-dioxo-hex-2-enoic Acid]",90%
11,"O=C(/C=C(\O)C(=O)O)CC(=O)c1cc(Cl)ccc1Cl [Compound 12, 6-(2,5-Dichloro-phenyl)2-hydroxy-4,6-dioxo-hex-2-enoic Acid]",98%
12,"O=C(/C=C(\O)C(=O)O)CC(=O)c1ccccc1C(F)(F)F [Compound 5, 2-Hydroxy-4,6-dioxo-6-(2-trifluoromethyl-phenyl)-hex-2-enoic Acid]",90%
13,"O=C(/C=C(\O)C(=O)O)CC(=O)c1ccc2ccccc2c1 [Compound 7, 2-Hydroxy-6-naphthalen-2-yl-4,6-dioxo-hex-2-enoic Acid]",95%
